Measured values: patent US4496580A, “Oxothienobenzoxepins” (Hoechst-Roussel Pharmaceuticals Inc., priority 1981, dated 1985)

Tests used:
Type in all cases: in vivo
[1] = ulcerogenic activity test (GI); conditions: for TD50: in vivo
Excerpt: (The ulcerogenic ativity test is hereafter referred to as GI).

[2] = test system: 2-phenyl-1,4-benzoquinone-induced writhing; assay: 2-phenyl-1,4-benzoquinone-induced writhing test in mice (PQW); conditions: for ED50: Mus musculus, PQW, mice, analgesic
Excerpt: (The phenylquinone-induced writhing test is hereinafter referred to as PQW).

[3] = test system: carrageenan-induced rat paw edema; assay: carrageenan-induced rat paw edema antiinflammatory assay (CPE); conditions: for ED50: CPE, rat, antiinflammatory
Excerpt: (The carrageenan-induced rat paw edema test is hereinafter referred to as CPE).

With `O=C(O)Cc1ccc2c(c1)C(=O)c1sccc1CO2` [Compound 1, reference compound] the TD50 [1] was 33.7 mg/kg, the ED50 [2] was 4.5 mg/kg and the ED50 [3] was 3.4 mg/kg.

Compound `CC(C)OC(=O)Cc1ccc2c(c1)C(=O)c1sccc1CO2` [Compound 2, reference compound] has a TD50 [1] of 21.6 mg/kg, an ED50 [2] of 13.7 mg/kg and an ED50 [3] of 1.6 mg/kg.

In the case of `O=C1c2cc(CCCCO)ccc2OCc2ccsc21` [Compound 3, 4-(4,10-Dihydro-10-oxothieno[3,2-c][1]benzoxepin-8-yl)butanol], the TD50 [1] was > 400 mg/kg, the “incidence of ulcers / ulcerogenic activity” value ([1]; result in words, test animals, very high dosage levels) was “very low incidence of ulcers” and the ED50 [2] was 7.4 mg/kg. The “activity in the PQW test” value ([2]; result in words) was “exhibit activity”, the ED50 [3] was 8.6 mg/kg and the “activity in the CPE test” value ([3]; result in words) was “exhibit activity”.
